# Assay results published in the supplement of paper PMC10307832.
# Legend:
# Assay in all cases: relative viability (nuclei count vs DMSO), 5 days (fraction); higher = more cells survive
# [1] = compound: NCC(=O)Nc1ccc(-n2nc(C(F)(F)F)cc2-c2ccc3c(ccc4ccccc43)c2)cc1 + Cc1nc(NC(=O)N2CCC[C@H]2C(N)=O)sc1-c1ccnc(C(C)(C)C(F)(F)F)c1 [Alpelisib] (partner 2 µM)
# How it was run: (§1)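 Cells from lung cancer lines were seeded into 1536-well plates and, one day later, dosed by pin tool. Treatments were either a single drug or a fixed dose of an anchor drug with five library-drug doses (not always all listed) in √10 steps. After 5 days, nuclei were stained in a one-step fixation (final 0.05% Triton X-100, 1% formaldehyde, 1 ug/ml Hoechst) and counted on 4× images, and relative viability is the treated-to-vehicle nuclei ratio, as the median of duplicate plates.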
# [2] = compound: C1CSC2=C(C(=O)N1)SC3=C2C=C(C=C3)O [kb NB 142-70] + CC(=O)c1c(C)c2cnc(Nc3ccc(N4CCNCC4)cn3)nc2n(C2CCCC2)c1=O [Palbociclib] (partner 0.5 µM)
# How it was run: as §1
# [3] = compound: NCC(=O)Nc1ccc(-n2nc(C(F)(F)F)cc2-c2ccc3c(ccc4ccccc43)c2)cc1 + Nc1ncn([C@H]2C[C@H](O)[C@@H](CO)O2)c(=O)n1 [Decitabine] (partner 2 µM)
# How it was run: as §1
# [4] = compound: NCC(=O)Nc1ccc(-n2nc(C(F)(F)F)cc2-c2ccc3c(ccc4ccccc43)c2)cc1 + CS(=O)(=O)CCNCc1ccc(-c2ccc3ncnc(Nc4ccc(OCc5cccc(F)c5)c(Cl)c4)c3c2)o1 [Lapatinib] (partner 2 µM)
# How it was run: as §1
Cell Line,relative viability ([1]; first compound 0.02 µM),relative viability ([1]; first compound 0.06325 µM),relative viability ([1]; first compound 0.2 µM),relative viability ([1]; first compound 0.6325 µM),relative viability ([1]; first compound 2 µM),relative viability ([2]; first compound 0.1 µM),relative viability ([2]; first compound 1 µM),relative viability ([2]; first compound 3.162 µM),relative viability ([3]; first compound 0.02 µM),relative viability ([3]; first compound 0.06325 µM),relative viability ([3]; first compound 0.2 µM),relative viability ([3]; first compound 0.6325 µM),relative viability ([3]; first compound 2 µM),relative viability ([4]; first compound 0.02 µM),relative viability ([4]; first compound 0.06325 µM),relative viability ([4]; first compound 0.2 µM),relative viability ([4]; first compound 0.6325 µM),relative viability ([4]; first compound 2 µM)
NCI-H1395,1.04,1.1,1.3,1.13,1.05,0.582,0.685,0.631,0.667,0.735,0.673,0.692,0.738,1.15,1.02,0.928,1.08,1.04
201T,1.08,1.05,1.04,1,1.05,0.35,0.361,0.394,0.838,0.846,0.901,0.87,0.846,1.04,1.07,0.996,1.08,1.04
NCI-H2170,0.782,0.716,0.823,0.886,0.88,0.413,0.44,0.392,0.496,0.454,0.518,0.446,0.45,0.278,0.285,0.277,0.286,0.288
NCI-H460,0.576,0.425,0.486,0.491,0.449,0.166,0.233,0.171,0.486,0.525,0.478,0.479,0.366,0.965,0.956,0.991,0.845,0.576
NCI-H661,0.82,0.626,0.693,0.758,0.94,0.379,0.363,0.342,0.507,0.592,0.524,0.579,0.572,0.526,0.521,0.44,0.445,0.556
HCC-15,0.879,0.9,0.889,0.956,0.865,0.699,0.699,0.588,0.623,0.659,0.677,0.67,0.654,0.847,0.876,0.839,0.821,0.812
ABC-1,0.955,0.88,,1.06,1.14,0.425,0.83,0.534,0.917,1.02,,0.954,1.13,1.26,1.01,0.983,1.05,1.11
EPLC-272H,1.06,0.916,0.917,1.05,0.936,0.324,0.329,0.28,0.382,0.35,0.331,0.423,0.372,0.88,1.09,0.85,0.907,1.21
